Marks after values point to notes of the source that are not given here.
Columns and labels:
[1] = Spectral properties of the fluorinated rhodamines (absorption, emission, quantum yield, lifetime); assay type: physicochemical
Description: Extinction coefficients (of the long wavelength maximum) which are lower than ca. 8×10^4 M^−1 cm^−1 indicate the presence of the closed non-fluorescent form.

[2] = tested on: living mammalian cells (PtK2); experiment: Membrane-permeation experiments in living cells, epifluorescence microscope; assay type: cell-based; conditions: 15 minutes
Description: FIG. 9. Membrane-permeation experiments of the presented dyes. Living mammalian cells (PtK2) were incubated for 15 minutes with a 50 μg dye/ml solution. The subcellular localization of the dye was imaged in an epifluorescence microscope. A: 46-H—CH2 CF3—H—H (16); B: 42-COOH (15); C: 23; D: 37-Me-Me-H (27); E: 42-H (14)-methylester; F: 33-H—H (18).
The most important prerequisite for fluorophores used in these labeling strategies is that sufficient amounts of it need to pass cellular membrane(s) to reach the target protein. In order to asses the permeability of the cell membrane to the fluorescent dyes described in the presented invention, living mammalian cells (PtK2) previously grown overnight on cover slips, were first subjected to either 500 μg dye/ml or 50 μg dye/ml in growth medium for 15 minutes. (The amount of dye used for labeling of SNAP-fusion proteins is below 5 μg dye/ml.) Then, the cells were washed with growth medium (without dye) for 15 minutes, and imaged using an epifluorescence microscope.

[3] = Ground state depletion (GSDIM) pump-probe measurements in PVA matrix; assay type: physicochemical; conditions: for λem / λex: PVA matrix table; for Γfl, remaining fluorescence after 5 measurement cycles / Rfl, t=0, residual fluorescence after the pump-pulse: PVA matrix; for Γfl, remaining fluorescence after 5 measurement cycles: at one spot with the given power density; for Rfl, t=0, residual fluorescence after the pump-pulse: pump-pulse power density per dye 14-110 kW/cm^2
Description: In this method, “off” and “on” switching of the fluorescence is achieved by transiently shelving the fluorophores into a meta-stable dark state. Upon the return of only a few isolated single molecules to the fluorescent singlet state, positions of these single light emitting spots can be imaged on a camera and localized with high precision. Upon repeating this procedure and acquiring many pictures, a super-resolution image can be reconstructed from the localized positions. A prerequisite of this method is that >70% of the ensemble of the applied fluorescent dyes can be shelved into a dark state at a time (to ensure the detection of isolated fluorescent spots at a time in a densely labeled sample) and that the fluorophores are bright enough, i.e., that they emit enough photons while being in the singlet on-state (to ensure high precision of localization).
Switching off of the laser leads to a recovery of the fluorescence ensemble within a characteristic recovery time of 150-450 ms (Table 5), indicating the shelving into a metastable dark state. The measurements were performed in a pump-probe mode, i.e., the residual level of fluorescence was probed with I<100 W/cm^2 for 0.5 ms after strong irradiation for 10 ms with the given laser intensity in Table 5.
Furthermore, recovery of the fluorescence can be accelerated by addition of UV light, which leads to an optically-induced depopulation of the dark states. Already 2-3 kW/cm^2 of 375 nm light recovers the fluorescence within an irradiation period of 0.5 ms. […] The accelerated recovery is important for samples with low density of labels, where the addition of UV light and thus acceleration of the return from a dark state helps to accelerate image acquisition. Photostabilities of the studied fluorescent dyes under the GSDIM conditions are different: 15-50 pump-probe cycles with a pump intensity of 14-110 kW/cm^2 bleach 30-95% of the whole ensemble.

[4] = Photoresistance in aqueous solutions irradiated with 488 nm light (3 W/cm^2); assay type: physicochemical; conditions: for change in emission on irradiation: colored water solutions, several hours, 488 nm line of an Argon laser
Description: The compounds also display an outstanding photostability when irradiated for a prolonged time. […] The initial absorption at the irradiation wavelength was the same for all solutions. […] After two hours of irradiation, compounds 14 and 15 retain more than 50% of the initial emission intensity and compound 14a has about 90% of the initial signal left.
FIG. 2. Photoresistance of selected compounds (14-17, 14a, and 16a in Table 2), and some commercially available fluorophores with the similar spectral properties (Alexa Fluor 488®, Rhodamine Green®, Oregon Green 488®, and Fluorescein) in aqueous solutions irradiated with 488 nm light (3 W/cm^2)

[5] = Fluorescence correlation spectroscopy (FCS) in aqueous solutions; assay type: physicochemical; conditions: aqueous solution, intensity range 0.1-2.0 MW/cm^2
Description: FIG. 10. FCS curves obtained from Rh110-CO2 (left plot) and compound 17 (right plot), at low (0.1 MW/cm^2) and high (2 MW/cm^2) excitation intensity (dots: experimental data; lines: best fits).
In combination with modern highly sensitive detection technologies recently developed, the observation of a single or a few molecules has become readily available. Several techniques based on these measurements [such as the fluorescence fluctuation spectroscopy and fluorescence correlation spectroscopy (FCS)] advantageously reveal molecular properties otherwise hidden by averaging the ensemble. A common requirement for experiments involving a few or single molecules is the use of fluorescent dyes with high photostability especially at high excitation intensities of >100 kW/cm^2. For biological applications the use of water as a solvent is almost imperative. Low solubility in water is often associated with a high bleaching ratio, or lower fluorescence quantum yield in aqueous medium compared with that in organic solvents. […]
The excitation intensity of 115 kW/cm^2 (a value normally used in routinely FCS measurements) and at an excitation intensity of about an order of magnitude higher (2 MW/cm^2) have been used. […] An increase in the fraction of molecules in the triplet state can also be detected. […]

[6] = cited from earlier work; for Photobleaching quantum yields: in water, low light intensities (up to 10^3 W/cm^2)

ABSORPTION ε ([1]; aqueous buffer at pH 7) | ABSORPTION λMAX ([1]; aqueous buffer at pH 7) | EMISSION λMAX ([1]; aqueous buffer at pH 7) | ΦFL ([1]; aqueous buffer at pH 7) | τFL ([1]; aqueous buffer at pH 7) | λem [3] | λex [3] | Γfl, remaining fluorescence after 5 measurement cycles [3] | Rfl, t=0, residual fluorescence after the pump-pulse [3] | ABSORPTION ε ([1]; methanol) | ABSORPTION λMAX ([1]; methanol) | EMISSION λMAX ([1]; methanol) | initial emission intensity retained ([4]; after two hours of irradiation, 488 nm, 3 W/cm^2) | Molecule | Structures stained in living cells ([2]; 50 μg dye/ml) | Structures stained in living cells ([2]; 500 μg dye/ml) | change in emission on irradiation [4] | change of diffusion time with excitation intensity (bleaching) [5] | Photobleaching quantum yields [6] | stability relative to rhodamine 6G ([6]; high light intensities (up to 10^7 W/cm^2))
54000 M⁻¹ cm⁻¹ | 506^a nm | 531^a nm | 0.66 | 3.2 ns | 531 nm | 506 nm | 50% | 25% |  |  |  |  | 2,7-Difluoro-N,N′-bis(2,2,2-trifluoroethyl)-4,5-disulforhodamine [Compound 20] | Dim cytoplasmatic stain with dots | Nearly no stain visible. |  |  |  | 
 | 488 nm | 512 nm | 0.89 | 4.0 ns | 512 nm | 488 nm | 20% | 8% | 42000 M⁻¹ cm⁻¹ | 498 nm | 514 nm |  | Nc1c(F)cc2c(c1S(=O)(=O)O)Oc1c(cc(F)c(N)c1S(=O)(=O)O)C21OC(=O)c2ccccc21 [Compound 12, 2,7-Difluoro-4,5-disulforhodamine] |  | Nearly no stain visible. |  |  |  | 
57000 M⁻¹ cm⁻¹ | 510 nm | 531 nm | 0.86 | 4.2 ns |  |  |  |  |  | 512 nm | 534 nm | about 90% | CN(CCC(=O)O)C(=O)c1ccccc1-c1c2ccc(=NCC(F)(F)F)cc-2oc2cc(NCC(F)(F)F)ccc12.Cl [Compound 14a] |  | Mitochondrial stain visible. |  |  |  | 
 | 499 nm | 520 nm | 0.88 | 3.8 ns |  |  |  |  | 87000 M⁻¹ cm⁻¹ | 507 nm | 524 nm |  | O=C(O)c1ccccc1-c1c2ccc(=NCC(F)(F)F)c(S(=O)(=O)O)c-2oc2c(S(=O)(=O)O)c(NCC(F)(F)F)ccc12 [Compound 16, 4,5-Disulfo-N,N′-bis(2,2,2-trifluoroethyl)rhodamine] | Dim cytoplasmatic stain with bright | Dim cellular stain with brightly | without any significant changes in their emission |  |  | 
 | 512 nm | 530 nm | 0.86 | 4.1 ns | 530 nm | 512 nm | 35% | 25% | 74000 M⁻¹ cm⁻¹ | 517 nm | 536 nm |  | CN(CCC(=O)O)C(=O)c1ccccc1-c1c2ccc(=NCC(F)(F)F)c(S(=O)(=O)O)c-2oc2c(S(=O)(=O)O)c(NCC(F)(F)F)ccc12 [Compound 16a] |  | Cellular stain visible; bright | without any significant changes in their emission |  |  | 
 | 501 nm | 524^a, 524^b nm | 0.96 | 3.9 ns | 524 nm | 501 nm | 40% | 25% | 86000 M⁻¹ cm⁻¹ | 511 nm | 524^a, 524^b nm |  | O=C(O)c1ccc2c(c1)C(=O)OC21c2ccc(NCC(F)(F)F)c(S(=O)(=O)O)c2Oc2c1ccc(NCC(F)(F)F)c2S(=O)(=O)O [Compound 17, 5′-Carboxy-4,5-disulfo-N,N′-bis(2,2,2-trifluoroethyl)-rhodamine] | Dim cytoplasmatic stain with dots | Bright background staining visible. | without any significant changes in their emission | no significant change in the diffusion time |  | 
 |  |  |  |  | 534 nm | 512 nm | 90% | 8% | 87000 M⁻¹ cm⁻¹ | 512^b nm | 534^b nm |  | COC(=O)CCN(C)C(=O)c1ccccc1-c1c2ccc(=NCC(F)(F)F)cc-2oc2cc(NCC(F)(F)F)ccc12 [Compound 44-Me] |  | Cytoplasmatic stain visible. |  |  |  | 
 |  |  |  |  |  |  |  |  |  |  |  |  | COC(=O)c1ccccc1-c1c2ccc(N)cc2[o+]c2cc(N)ccc12 [methyl ester of rhodamine 110] |  |  |  |  | 6.6 ×10^−7 | 
 |  |  |  |  |  |  |  |  |  |  |  |  | CCN=c1cc2oc3cc(NCC)c(C)cc3c(-c3ccccc3C(=O)OCC)c-2cc1C.Cl [rhodamine 6G] |  |  |  |  | 12 ×10^−7 | 
 |  |  |  |  |  |  |  |  |  |  |  |  | CN(C)c1ccc2c(-c3ccccc3C(=O)[O-])c3ccc(N(C)C)cc3[o+]c2c1 [tetramethyl rhodamine] |  |  |  |  | 3.3 ×10^−7 | 4-5 times
 |  |  |  |  |  |  |  |  |  |  |  |  | carboxy rhodamine 110 [Rh110-CO2, reference compound] |  |  |  | shortening of the apparent diffusion characteristic time |  | 

Source: patent US8735444B2, “Fluorinated rhodamines as photostable fluorescent dyes for labelling and imaging techniques” (Max-Planck-Gesellschaft zur Foerderung der Wissenschaften …, priority 2009, dated 2014)
